The text below walks through data of ChEMBL document CHEMBL3627712, “Synthesis and initial evaluation of quinoline-based inhibitors of the SH2-containing inositol 5'-phosphatase (SHIP)” (Bioorg Med Chem Lett, 2015).

For test [1], the target named is T1, Phosphatidylinositol 3,4,5-trisphosphate 5-phosphatase 1 (Homo sapiens) (UniProt Q92835).
T1 sequence (whole entry): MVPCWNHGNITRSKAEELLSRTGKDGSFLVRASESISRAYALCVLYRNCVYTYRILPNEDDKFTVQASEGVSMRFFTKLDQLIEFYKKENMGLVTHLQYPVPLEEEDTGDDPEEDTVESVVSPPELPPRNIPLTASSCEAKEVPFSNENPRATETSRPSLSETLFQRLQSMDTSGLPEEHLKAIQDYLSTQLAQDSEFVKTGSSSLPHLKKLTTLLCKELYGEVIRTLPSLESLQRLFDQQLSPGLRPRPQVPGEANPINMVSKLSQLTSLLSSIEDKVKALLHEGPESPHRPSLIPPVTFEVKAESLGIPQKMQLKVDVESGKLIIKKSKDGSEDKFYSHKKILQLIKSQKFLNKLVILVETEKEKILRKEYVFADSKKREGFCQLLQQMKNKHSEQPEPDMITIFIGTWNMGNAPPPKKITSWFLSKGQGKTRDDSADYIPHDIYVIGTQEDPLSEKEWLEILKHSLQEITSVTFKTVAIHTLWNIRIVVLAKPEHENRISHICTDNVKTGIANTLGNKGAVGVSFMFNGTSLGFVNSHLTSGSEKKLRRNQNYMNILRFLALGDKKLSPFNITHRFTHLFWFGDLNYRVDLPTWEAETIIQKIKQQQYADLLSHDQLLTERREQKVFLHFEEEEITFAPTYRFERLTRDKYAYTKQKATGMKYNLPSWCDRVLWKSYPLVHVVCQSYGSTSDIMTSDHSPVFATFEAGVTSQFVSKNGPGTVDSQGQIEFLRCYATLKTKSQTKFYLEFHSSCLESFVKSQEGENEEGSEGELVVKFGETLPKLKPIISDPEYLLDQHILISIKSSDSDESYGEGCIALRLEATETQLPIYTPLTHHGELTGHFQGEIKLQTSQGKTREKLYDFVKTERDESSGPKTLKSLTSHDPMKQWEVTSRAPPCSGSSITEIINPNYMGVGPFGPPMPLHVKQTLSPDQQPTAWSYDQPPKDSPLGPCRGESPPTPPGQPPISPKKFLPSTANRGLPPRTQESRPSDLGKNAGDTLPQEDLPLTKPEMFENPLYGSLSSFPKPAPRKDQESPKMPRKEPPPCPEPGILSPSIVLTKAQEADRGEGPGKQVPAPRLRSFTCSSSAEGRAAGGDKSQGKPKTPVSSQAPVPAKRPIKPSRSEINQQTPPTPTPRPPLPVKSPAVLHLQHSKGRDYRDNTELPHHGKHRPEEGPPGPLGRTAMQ
Put plainly: Inhibition of recombinant human truncated SHIP1 using PI(3,4,5)P3diC8 at 1 mM after 30 mins by malachite green phosphatase release assay.

Test [2] concerns the target T2, Phosphatidylinositol 3,4,5-trisphosphate 5-phosphatase 2 (Homo sapiens) (UniProt O15357).
T2 sequence (whole entry): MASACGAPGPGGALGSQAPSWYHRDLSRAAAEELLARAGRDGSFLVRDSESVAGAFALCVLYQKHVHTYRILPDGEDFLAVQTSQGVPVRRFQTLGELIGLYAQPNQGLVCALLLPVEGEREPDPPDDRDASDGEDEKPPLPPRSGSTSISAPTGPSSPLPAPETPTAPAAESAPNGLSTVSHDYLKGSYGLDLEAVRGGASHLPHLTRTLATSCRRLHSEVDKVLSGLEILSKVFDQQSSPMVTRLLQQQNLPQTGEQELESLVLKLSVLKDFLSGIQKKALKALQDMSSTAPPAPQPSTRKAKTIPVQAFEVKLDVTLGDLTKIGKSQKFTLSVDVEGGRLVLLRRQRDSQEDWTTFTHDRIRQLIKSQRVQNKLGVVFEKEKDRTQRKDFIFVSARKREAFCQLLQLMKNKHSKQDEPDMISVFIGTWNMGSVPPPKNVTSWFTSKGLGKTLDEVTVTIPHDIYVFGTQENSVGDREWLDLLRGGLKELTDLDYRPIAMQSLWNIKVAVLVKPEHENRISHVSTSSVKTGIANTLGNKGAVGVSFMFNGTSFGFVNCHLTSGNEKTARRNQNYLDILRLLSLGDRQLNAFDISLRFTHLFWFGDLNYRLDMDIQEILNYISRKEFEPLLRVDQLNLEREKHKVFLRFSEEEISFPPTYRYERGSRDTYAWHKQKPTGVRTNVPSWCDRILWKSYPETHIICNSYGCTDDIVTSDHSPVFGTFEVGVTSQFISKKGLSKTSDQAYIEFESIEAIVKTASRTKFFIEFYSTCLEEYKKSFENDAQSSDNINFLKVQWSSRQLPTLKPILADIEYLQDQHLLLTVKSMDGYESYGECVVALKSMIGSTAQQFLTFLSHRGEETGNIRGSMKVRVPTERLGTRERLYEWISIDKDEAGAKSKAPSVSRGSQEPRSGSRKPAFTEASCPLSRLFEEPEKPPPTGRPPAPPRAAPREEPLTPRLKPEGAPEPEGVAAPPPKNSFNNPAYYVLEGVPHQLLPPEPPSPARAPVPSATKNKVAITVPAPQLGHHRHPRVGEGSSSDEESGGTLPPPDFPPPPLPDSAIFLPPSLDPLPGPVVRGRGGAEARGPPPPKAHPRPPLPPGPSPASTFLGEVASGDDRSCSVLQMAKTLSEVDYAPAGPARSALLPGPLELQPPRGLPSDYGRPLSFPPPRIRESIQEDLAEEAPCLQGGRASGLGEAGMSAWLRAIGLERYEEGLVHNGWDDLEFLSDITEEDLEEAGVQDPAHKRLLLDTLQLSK
Put plainly: Inhibition of recombinant human truncated SHIP2 using PI(3,4,5)P3diC8 at 1 mM after 30 mins by malachite green phosphatase release assay.

Test [3] has as its target T2, Phosphatidylinositol 3,4,5-trisphosphate 5-phosphatase 2 (Homo sapiens). Put plainly: Inhibition of recombinant human truncated SHIP2 using PI(3,4,5)P3diC8 at 500 uM after 30 mins by malachite green phosphatase release assay.
Test [4] addresses T1, Phosphatidylinositol 3,4,5-trisphosphate 5-phosphatase 1 (Homo sapiens). Put plainly: Inhibition of recombinant human truncated SHIP1 using PI(3,4,5)P3diC8 at 500 uM after 30 mins by malachite green phosphatase release assay.

Structures are written as SMILES.

Turning to `C=C[C@H]1CN2CC[C@H]1C[C@H]2[C@H](O)c1ccnc2ccc(OC)cc12`, the inhibition (in general, the relative decrease from the control value, in per cent) is 0% in test [1] and 8% in test [2].

`O=C(O)c1cc(C23CC4CC(CC(C4)C2)C3)nc2c(Cl)cc(Cl)cc12`: the inhibition turned out to be 0% in test [3] and 44% in test [4].

For `OC(c1cc(C(F)(F)F)nc2c(C(F)(F)F)cccc12)C1CCCCN1` (centres undefined), the inhibition in test [1] and in test [2] was 54% throughout.

With `CN[C@@H](C)[C@@H](O)c1ccccc1`, the inhibition in test [1] is 2%; in test [2], 13%.

As to `NCc1cc(-c2ccccc2)nc2c1ccc1ccccc12`, the inhibition was determined as 41% in test [1] and 66% in test [2].

With `OCc1cc(-c2ccccc2)nc2c1ccc1ccccc12`, the inhibition was determined as 18% in test [3] and 2% in test [4].

For the compound `CN[C@@H](C)[C@H](O)c1ccccc1`, the inhibition in test [1] and in test [2] was 0% throughout.

Consider `OC(c1cc(-c2ccccc2)nc2c1ccc1ccccc12)C1CCCCN1` (centres undefined), for which the results for the inhibition in test [1] and in test [2] were 38% and 17%, respectively.

`O=C(O)c1cc(-c2ccccc2)nc2c1ccc1ccccc12`: the inhibition was found to be 0% in test [3] and 7% in test [4].

Take `OC(c1cc(C23CC4CC(CC(C4)C2)C3)nc2c(Cl)cc(Cl)cc12)C1CCCCN1` (centres undefined): the inhibition in test [1] was determined as 38%; in test [2], 73%.

Take `C=C[C@H]1CN2CC[C@H]1C[C@@H]2[C@@H](O)c1ccnc2ccc(OC)cc12`: the inhibition in test [1] was found to be 19%; in test [2], 5%.

As to `OCc1cc(C23CC4CC(CC(C4)C2)C3)nc2c(Cl)cc(Cl)cc12`, the inhibition in test [3] was 14%; in test [4], 0%.
